The source of these data is PubChem BioAssay (NCI).

Several values for one entry are separate records, joined by “and”; a condition that tells them apart may be missing. Identical values can stand only once.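 Values below derive from 48-hour exposures of cells grown in 96-well plates, with endpoints linearly interpolated between the two concentrations bracketing the appropriate inhibition level. The concentration for 50% growth inhibition is given as GI50. TGI: total growth inhibition.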

Among the test systems are DU-145 prostate; HOP-92 NSCLC; PC-3 prostate; SK-MEL-5 melanoma; NCI-H522 lung; UACC-62 melanoma; NCI-H23 lung; T-47D breast; HL-60(TB) leukemia; HCC-2998 colon.
Experiment in all cases: inhibition of tumour cell growth, NCI panel, 48 h

For `COc1ccc(/C(COc2c(-c3ccccc3)oc3ccccc3c2=O)=N\O)cc1`, the GI50 in the assay with DU-145 prostate was 22 µM; in the assay with HOP-92 NSCLC it was more than 50 µM; with PC-3 prostate it was 13.4 µM; in the assay on SK-MEL-5 melanoma, 9.61 µM; in the assay with NCI-H522 lung, 11.1 µM; in the assay with UACC-62 melanoma it was 12.7 µM. Besides, the GI50 in the assay on NCI-H23 lung is 24.2 µM; with T-47D breast, 13.5 µM; in the assay with HL-60(TB) leukemia, 20 µM; with HCC-2998 colon, 8.42 µM. Further, the TGI is more than 50 µM with DU-145 prostate; more than 50 µM in the assay on HOP-92 NSCLC; 35.5 µM in the assay with PC-3 prostate; 20.1 µM with SK-MEL-5 melanoma; 28.5 µM in the assay with NCI-H522 lung; 43.5 µM with UACC-62 melanoma. Further, the TGI was more than 50 µM in the assay on NCI-H23 lung, 41.6 µM with T-47D breast, more than 50 µM in the assay on HL-60(TB) leukemia and 22.3 µM in the assay on HCC-2998 colon.
Regarding `CCN(CC)CCOc1ccc(/C(=C(\Cl)c2ccccc2)c2ccccc2)cc1`, the GI50 with DU-145 prostate was 6.79 µM and 5.62 µM; in the assay with HOP-92 NSCLC, 1.58 µM; in the assay on PC-3 prostate it was 2.63 µM and 2.76 µM; in the assay with SK-MEL-5 melanoma it was 0.808 µM and 1.55 µM; with NCI-H522 lung, 3.09 µM and 1.47 µM; in the assay on UACC-62 melanoma it was 1.04 µM and 2.15 µM. The GI50 is 5.25 µM and 2.62 µM in the assay on NCI-H23 lung; 1.51 µM and 1.73 µM with T-47D breast; 2.1 µM and 3.13 µM in the assay on HL-60(TB) leukemia; 2 µM and 2.4 µM with HCC-2998 colon. Moreover, the TGI in the assay with DU-145 prostate is 13.3 µM and 19.2 µM; with HOP-92 NSCLC it was 5.4 µM; with PC-3 prostate it was 9.02 µM and 10.2 µM; with SK-MEL-5 melanoma it was 1.5 µM and 2.88 µM; with NCI-H522 lung, 10 µM and 3.02 µM; in the assay with UACC-62 melanoma it was 2.33 µM and 4.88 µM. Further, the TGI in the assay with NCI-H23 lung is 11.8 µM and 10.3 µM; in the assay with T-47D breast, 9.55 µM and 12.9 µM; with HL-60(TB) leukemia, 7.77 µM and 6.16 µM; in the assay on HCC-2998 colon, 7.35 µM and 6.41 µM.
Take `C=CC(=O)N1CC2(CCN(c3nc(OC4CCN(CCCOC)CC4)nc4c(OCC(F)(F)F)c(-c5c(C)ccc6[nH]ncc56)c(C5CC5)cc34)CC2)C1`: the GI50 was 2.9 µM in the assay on DU-145 prostate; 3.53 µM in the assay on HOP-92 NSCLC; 2.61 µM in the assay with PC-3 prostate; 2.14 µM in the assay on SK-MEL-5 melanoma; 1.78 µM in the assay with NCI-H522 lung; 5.27 µM in the assay with UACC-62 melanoma. The figures for the GI50 in the assay on T-47D breast, in the assay with HL-60(TB) leukemia and in the assay on HCC-2998 colon were 2.71 µM, 1.76 µM and 2 µM, respectively. Besides, the TGI in the assay with DU-145 prostate is 9.12 µM; with HOP-92 NSCLC, 11 µM; with PC-3 prostate, 9.86 µM; with SK-MEL-5 melanoma, 4.93 µM; in the assay on NCI-H522 lung it was 3.57 µM; in the assay with UACC-62 melanoma it was 18.9 µM. Also, the TGI in the assay with NCI-H23 lung worked out at 1.95 µM; in the assay on T-47D breast, 9.46 µM; in the assay on HL-60(TB) leukemia it was 4.57 µM; in the assay on HCC-2998 colon, 4.64 µM.
Turning to `COc1ccc(/C=C/c2nccc3ccccc23)cc1OC`, the TGI in the assay with DU-145 prostate, in the assay with HOP-92 NSCLC, in the assay on PC-3 prostate, in the assay on SK-MEL-5 melanoma, in the assay on NCI-H522 lung and in the assay on UACC-62 melanoma was more than 10 µM in each case. Further, the TGI in the assay with NCI-H23 lung, in the assay with T-47D breast, in the assay on HL-60(TB) leukemia and with HCC-2998 colon was more than 10 µM throughout.
On to `CC[C@@H]1CN(C)[C@H]2Cc3c([nH]c4ccccc34)C(=O)C[C@H]1C2C(=O)OC` (some centres undefined), for which the TGI in the assay on DU-145 prostate, in the assay on HOP-92 NSCLC, in the assay with PC-3 prostate, in the assay on SK-MEL-5 melanoma, in the assay with NCI-H522 lung and with UACC-62 melanoma was more than 100 µM each time. Also, the TGI in the assay with NCI-H23 lung, in the assay with T-47D breast, in the assay with HL-60(TB) leukemia and in the assay with HCC-2998 colon was more than 100 µM in each case.
On to `CC(=O)OCCN1c2ccccc2Sc2cnccc21`, for which the TGI with DU-145 prostate, with HOP-92 NSCLC, in the assay on PC-3 prostate, with SK-MEL-5 melanoma, with NCI-H522 lung and in the assay on UACC-62 melanoma was more than 10 µM throughout. Further, the TGI with NCI-H23 lung, in the assay on T-47D breast, with HL-60(TB) leukemia and in the assay with HCC-2998 colon was more than 10 µM each time.
As for `O=C(N/N=C/c1ccccc1O)c1ccccc1Nc1ccnc(C(F)(F)F)c1`, the GI50 with DU-145 prostate is 0.478 µM; in the assay with HOP-92 NSCLC it was 0.388 µM; in the assay with PC-3 prostate it was 0.295 µM; in the assay on SK-MEL-5 melanoma, 0.432 µM; in the assay with NCI-H522 lung, 5.74 µM; with UACC-62 melanoma, 0.365 µM. For the same molecule, the GI50 in the assay with NCI-H23 lung is 1.33 µM; with T-47D breast, 1.07 µM; in the assay on HL-60(TB) leukemia, 0.293 µM; with HCC-2998 colon, 0.388 µM. For the same molecule, the TGI with DU-145 prostate was more than 48.7 µM; in the assay on HOP-92 NSCLC, 10.9 µM; in the assay on PC-3 prostate, 10.1 µM; with SK-MEL-5 melanoma it was 5.53 µM; in the assay on NCI-H522 lung, more than 58.9 µM; in the assay with UACC-62 melanoma it was 7 µM. Also, the TGI in the assay with NCI-H23 lung is more than 44.9 µM; in the assay on T-47D breast, more than 78.4 µM; in the assay with HL-60(TB) leukemia, 1.69 µM; in the assay on HCC-2998 colon, 24.7 µM.
As to `CCCn1cnc2c(SCc3ccccc3Cl)nc(N)nc21`, the GI50 in the assay on DU-145 prostate is 15.5 µM; in the assay on HOP-92 NSCLC, 1.44 µM; in the assay on PC-3 prostate, 6.49 µM; in the assay with SK-MEL-5 melanoma, 4.22 µM; in the assay on NCI-H522 lung, 19.4 µM; in the assay on UACC-62 melanoma, 8.53 µM. The GI50 in the assay on NCI-H23 lung was 30 µM; with T-47D breast it was 22 µM; with HL-60(TB) leukemia, 5.53 µM; in the assay with HCC-2998 colon it was 17.8 µM. Besides, the TGI was 45.6 µM in the assay on DU-145 prostate; 23.9 µM in the assay with HOP-92 NSCLC; 37.5 µM with PC-3 prostate; 19 µM with SK-MEL-5 melanoma; 71.1 µM in the assay with NCI-H522 lung; 22.7 µM in the assay with UACC-62 melanoma. Moreover, the TGI is more than 100 µM in the assay with NCI-H23 lung, 80.8 µM in the assay on T-47D breast, 28.6 µM in the assay on HL-60(TB) leukemia and 67 µM in the assay on HCC-2998 colon.
As to `OCc1c[nH]c2ccccc12`, the GI50 with DU-145 prostate is 28.7 µM; in the assay on HOP-92 NSCLC it was 9.35 µM; with PC-3 prostate, 15.5 µM; in the assay on SK-MEL-5 melanoma, 14.4 µM; with NCI-H522 lung, 16.7 µM; in the assay with UACC-62 melanoma, 15.3 µM. Moreover, the GI50 in the assay with NCI-H23 lung was 19.5 µM; in the assay with T-47D breast, 16 µM; in the assay with HL-60(TB) leukemia, 35.1 µM; in the assay with HCC-2998 colon it was 20.2 µM. Besides, the TGI in the assay on DU-145 prostate was 77.4 µM; with HOP-92 NSCLC, 63.5 µM; in the assay on PC-3 prostate, 45.3 µM; in the assay on SK-MEL-5 melanoma, 30.1 µM; in the assay on NCI-H522 lung, 37.1 µM; in the assay with UACC-62 melanoma, 35.8 µM. Besides, the TGI is 48.1 µM in the assay with NCI-H23 lung, more than 100 µM in the assay with T-47D breast, 77.3 µM in the assay on HL-60(TB) leukemia and 41 µM in the assay on HCC-2998 colon.
